Assay results reported in the supplement of paper PMC6965134.
± gives the standard deviation of the averaged measurements.

Assay: TIMS collisional cross section (CCS, N2) of the lipid ion; higher = larger ion cross section
Details: ionization mode: negative, one isomer drawn
Method: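 Lipid extracts of human plasma (NIST SRM 1950), mouse liver or HeLa cells were separated by nanoflow C18 LC (30 min gradient) and analysed by TIMS-PASEF on a timsTOF Pro. Ion mobility was calibrated with the Agilent tuning mix (negative mode ions) and converted to collisional cross sections (Mason–Schamp, N2).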
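Note: lipids from MTBE extraction, five replicate injections per sample, 100 ms TIMS ramp spanning 0.6–1.95 Vs/cm², lipid identity assigned from PASEF MS/MS spectra.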

CCCCCCCCCCCCCCCCCCOCC(O)COP(=O)([O-])OCC[N+](C)(C)C (stereo not drawn) [LPC O- 18:0]
TIMS collisional cross section (sample type: Human plasma, ion (formula + adduct): [C26H56NO6P+HCOO] 1-): 243.4 Å²

CCCCCC/C=C\CCCCCCCCCCOC[C@@H](O)COP(=O)([O-])OCC[N+](C)(C)C [LPC O- 18:1_0:0]
TIMS collisional cross section (sample type: Human plasma, ion (formula + adduct): [C26H54NO6P+HCOO] 1-): 244 Å²

CCCCCCCCCCCCCCCC(=O)OC[C@@H](O)COP(=O)(O)OCCN [LPE 16:0_0:0]
TIMS collisional cross section (sample type: Human plasma, ion (formula + adduct): [C21H44NO7P-CH3] 1-): 207.4 Å² | TIMS collisional cross section (sample type: Human plasma, ion (formula + adduct): [C21H44NO7P-H] 1-): 214 ± 5.5 Å² | TIMS collisional cross section (sample type: Mouse Liver, ion (formula + adduct): [C21H44NO7P-H] 1-): 219.47 ± 10 Å²

CCCCCC/C=C\CCCCCCCC(=O)OC[C@@H](O)COP(=O)(O)OCCN [LPE 16:1_0:0]
TIMS collisional cross section (sample type: Human plasma, ion (formula + adduct): [C21H42NO7P-H] 1-): 208.4 Å² | TIMS collisional cross section (sample type: Mouse Liver, ion (formula + adduct): [C21H42NO7P-H] 1-): 208.4 Å²

CCCCCCCCCCCCCCCCCC(=O)OC[C@@H](O)COP(=O)(O)OCCN [LPE 18:0_0:0]
TIMS collisional cross section (sample type: Human plasma, ion (formula + adduct): [C23H48NO7P-CH3] 1-): 214.1 Å² | TIMS collisional cross section (sample type: Human plasma, ion (formula + adduct): [C23H48NO7P-H] 1-): 218.1 Å² | TIMS collisional cross section (sample type: Mouse Liver, ion (formula + adduct): [C23H48NO7P-H] 1-): 217.5 ± 0.6 Å²

CCCCCCCC/C=C\CCCCCCCC(=O)OC[C@@H](O)COP(=O)(O)OCCN [LPE 18:1_0:0]
TIMS collisional cross section (sample type: Human plasma, ion (formula + adduct): [C23H46NO7P-H] 1-): 215.5 ± 1 Å² | TIMS collisional cross section (sample type: Mouse Liver, ion (formula + adduct): [C23H46NO7P-H] 1-): 215.2 ± 1 Å²

CCCCC/C=C\C/C=C\CCCCCCCC(=O)OC[C@@H](O)COP(=O)(O)OCCN [LPE 18:2_0:0]
TIMS collisional cross section (sample type: Human plasma, ion (formula + adduct): [C23H44NO7P-H] 1-): 212.88 ± 0.79 Å² | TIMS collisional cross section (sample type: Mouse Liver, ion (formula + adduct): [C23H44NO7P-H] 1-): 212.2 Å²

CCCCC/C=C\C/C=C\C/C=C\CCCCC(=O)OC[C@@H](O)COP(=O)(O)OCCN [LPE 18:3_0:0]
TIMS collisional cross section (sample type: Human plasma, ion (formula + adduct): [C23H42NO7P-H] 1-): 211.6 Å²

CCCCCCCCCCCCCCCCCCCC(=O)OC[C@@H](O)COP(=O)(O)OCCN [LPE 20:0_0:0]
TIMS collisional cross section (sample type: Human plasma, ion (formula + adduct): [C25H52NO7P-H] 1-): 224.9 Å² | TIMS collisional cross section (sample type: Mouse Liver, ion (formula + adduct): [C25H52NO7P-CH3] 1-): 220.9 Å²

CCCCCCCC/C=C\CCCCCCCCCC(=O)OC[C@@H](O)COP(=O)(O)OCCN [LPE 20:1_0:0]
TIMS collisional cross section (sample type: Mouse Liver, ion (formula + adduct): [C25H50NO7P-H] 1-): 222.6 Å²

CCCCC/C=C\C/C=C\C/C=C\CCCCCCC(=O)OC[C@@H](O)COP(=O)(O)OCCN [LPE 20:3_0:0]
TIMS collisional cross section (sample type: Mouse Liver, ion (formula + adduct): [C25H46NO7P-H] 1-): 217.6 ± 0.42 Å²

CCCCC/C=C\C/C=C\C/C=C\C/C=C\CCCC(=O)OC[C@@H](O)COP(=O)(O)OCCN [LPE 20:4_0:0]
TIMS collisional cross section (sample type: Mouse Liver, ion (formula + adduct): [C25H44NO7P-H] 1-): 217.3 Å²

CC/C=C\C/C=C\C/C=C\C/C=C\C/C=C\CCCC(=O)OC[C@@H](O)COP(=O)(O)OCCN [LPE 20:5_0:0]
TIMS collisional cross section (sample type: Human plasma, ion (formula + adduct): [C25H42NO7P-H] 1-): 216.7 Å² | TIMS collisional cross section (sample type: Mouse Liver, ion (formula + adduct): [C25H42NO7P-H] 1-): 216.7 Å²

CCCCC/C=C\C/C=C\C/C=C\C/C=C\CCCCCC(=O)OC[C@@H](O)COP(=O)(O)OCCN [LPE 22:4_0:0]
TIMS collisional cross section (sample type: Human plasma, ion (formula + adduct): [C27H48NO7P-H] 1-): 223.5 Å² | TIMS collisional cross section (sample type: Mouse Liver, ion (formula + adduct): [C27H48NO7P-H] 1-): 222.9 Å²

CCCCC/C=C\C/C=C\C/C=C\C/C=C\C/C=C\CCC(=O)OC[C@@H](O)COP(=O)(O)OCCN [LPE 22:5_0:0]
TIMS collisional cross section (sample type: Human plasma, ion (formula + adduct): [C27H46NO7P-H] 1-): 222.18 ± 0.25 Å² | TIMS collisional cross section (sample type: Mouse Liver, ion (formula + adduct): [C27H46NO7P-H] 1-): 222.05 ± 0.35 Å²

CC/C=C\C/C=C\C/C=C\C/C=C\C/C=C\C/C=C\CCC(=O)OC[C@@H](O)COP(=O)(O)OCCN [LPE 22:6_0:0]
TIMS collisional cross section (sample type: Human plasma, ion (formula + adduct): [C27H44NO7P-H] 1-): 222.4 Å²

CCCCCCCC/C=C\CCCCCCCCOC[C@@H](O)COP(=O)(O)OCCN [LPE O- 18:1_0:0]
TIMS collisional cross section (sample type: Human plasma, ion (formula + adduct): [C23H48NO6P-H] 1-): 218.6 ± 2.1 Å²

CCCCCCCCCCCCCCCCCC/C=C\OC[C@@H](O)COP(=O)(O)OCCN [LPE O- 20:0_0:0]
TIMS collisional cross section (sample type: Human plasma, ion (formula + adduct): [C25H52NO6P-H] 1-): 223.9 Å² | TIMS collisional cross section (sample type: Mouse Liver, ion (formula + adduct): [C25H52NO6P-H] 1-): 222.7 Å²

CCCCCCCCCCCCCCCC(=O)OC[C@@H](O)COP(=O)(O)OC[C@@H](O)CO [LPG 16:0_0:0]
TIMS collisional cross section (sample type: Human plasma, ion (formula + adduct): [C22H45O9P-H] 1-): 216.9 Å²

CCCCCCCCCCCCCCCCCC(=O)OC[C@@H](O)COP(=O)(O)OC[C@@H](O)CO [LPG 18:0_0:0]
TIMS collisional cross section (sample type: Human plasma, ion (formula + adduct): [C24H49O9P-H] 1-): 224.9 Å²

CCCCCCCC/C=C\CCCCCCCC(=O)OC[C@@H](O)COP(=O)(O)OC[C@@H](O)CO [LPG 18:1_0:0]
TIMS collisional cross section (sample type: Mouse Liver, ion (formula + adduct): [C24H47O9P-H] 1-): 221.1 Å²

CCCCCCCCCCCCCCCC(=O)OC[C@@H](O)COP(=O)(O)OC1C(O)C(O)C(O)[C@@H](O)C1O (stereo partly drawn) [LPI 16:0]
TIMS collisional cross section (sample type: Mouse Liver, ion (formula + adduct): [C25H49O12P-H] 1-): 232.6 Å²

CCCCCC/C=C\CCCCCCCC(=O)OC[C@@H](O)COP(=O)(O)OC1[C@H](O)[C@H](O)C(O)[C@H](O)[C@H]1O (stereo partly drawn) [LPI 16:1_0:0]
TIMS collisional cross section (sample type: Human plasma, ion (formula + adduct): [C25H47O12P-H] 1-): 230.2 Å²

CCCCCCCCCCCCCCCCCC(=O)OC[C@@H](O)COP(=O)(O)OC1C(O)C(O)C(O)[C@@H](O)C1O (stereo partly drawn) [LPI 18:0_0:0]
TIMS collisional cross section (sample type: Human plasma, ion (formula + adduct): [C27H53O12P-H] 1-): 239.4 Å²

CCCCCCCC/C=C\CCCCCCCC(=O)OC[C@@H](O)COP(=O)(O)OC1[C@H](O)[C@H](O)C(O)[C@H](O)[C@H]1O (stereo partly drawn) [LPI 18:1_0:0]
TIMS collisional cross section (sample type: Human plasma, ion (formula + adduct): [C27H51O12P-H] 1-): 238.3 Å²

CC/C=C\C/C=C\C/C=C\C/C=C\CCCCC(=O)OC[C@@H](O)COP(=O)(O)OC1[C@H](O)[C@H](O)C(O)[C@H](O)[C@H]1O (stereo partly drawn) [LPI 18:4_0:0]
TIMS collisional cross section (sample type: Mouse Liver, ion (formula + adduct): [C27H45O12P+AcO] 1-): 244.9 Å²

CCCCC/C=C\C/C=C\C/C=C\CCCCCCC(=O)OC[C@@H](O)COP(=O)(O)OC1[C@H](O)[C@H](O)C(O)[C@H](O)[C@H]1O (stereo partly drawn) [LPI 20:3_0:0]
TIMS collisional cross section (sample type: Human plasma, ion (formula + adduct): [C29H51O12P-H] 1-): 240.4 Å²

CCCCC/C=C\C/C=C\C/C=C\C/C=C\CCCC(=O)OC[C@@H](O)COP(=O)(O)OC1C(O)C(O)C(O)[C@@H](O)C1O (stereo partly drawn) [LPI 20:4_0:0]
TIMS collisional cross section (sample type: Human plasma, ion (formula + adduct): [C29H49O12P-H] 1-): 239.9 Å² | TIMS collisional cross section (sample type: Mouse Liver, ion (formula + adduct): [C29H49O12P-H] 1-): 241 Å²

CC/C=C\C/C=C\C/C=C\C/C=C\C/C=C\C/C=C\CCC(=O)OC[C@@H](O)COP(=O)(O)OC1[C@H](O)[C@H](O)C(O)[C@H](O)[C@H]1O (stereo partly drawn) [LPI 22:6_0:0]
TIMS collisional cross section (sample type: Human plasma, ion (formula + adduct): [C31H49O12P-H] 1-): 243.8 Å²

CCCCCCCCCCCCCCCCCC(=O)OC[C@@H](O)COP(=O)(O)OC[C@H](N)C(=O)O [LPS 18:0_0:0]
TIMS collisional cross section (sample type: Mouse Liver, ion (formula + adduct): [C24H48NO9P-H] 1-): 227.7 Å²

CC/C=C\C/C=C\C/C=C\C/C=C\C/C=C\C/C=C\CCC(=O)OC[C@@H](O)COP(=O)(O)OC[C@H](N)C(=O)O [LPS 22:6]
TIMS collisional cross section (sample type: Mouse Liver, ion (formula + adduct): [C28H44NO9P-H] 1-): 230.2 Å²

CCCCC/C=C\C[C@H](O)/C=C/C=C\C/C=C\CCCC(=O)O[C@H](COC(=O)CCCCCCCCCCCCCCC)COP(=O)([O-])OCC[N+](C)(C)C [Oxidized PC 16:0@_20:4]
TIMS collisional cross section (sample type: Mouse Liver, ion (formula + adduct): [C44H80NO9P-CH3] 1-): 281.3 Å²

CCCCCCCCCCCCCCCC(=O)OC[C@H](COP(=O)([O-])OCC[N+](C)(C)C)OC(=O)CCCC(=O)O [Oxidized PC 16:0_5:0]
TIMS collisional cross section (sample type: Mouse Liver, ion (formula + adduct): [C29H56NO10P-CH3] 1-): 240.1 Å²

CCCCCCCCCCCCCCCC(=O)OC[C@H](COP(=O)([O-])OCC[N+](C)(C)C)OC(=O)CCCC=O [Oxidized PC 16:0_5:0]
TIMS collisional cross section (sample type: Human plasma, ion (formula + adduct): [C29H56NO9P+HCOO] 1-): 255.5 Å² | TIMS collisional cross section (sample type: Mouse Liver, ion (formula + adduct): [C29H56NO9P+AcO] 1-): 258.4 Å²
